The record followed here is patent US4044043A, “Derivatives of 9-oxo-13-trans-prostenoic acid esters” (American Cyanamid Company, priority 1975, dated 1977).

The test system of one test is diastolic blood pressure. The experiment in a line: Prostaglandin-like hypotensive activity in anesthetized rats (minimal dose for about 10 mm. decrease in diastolic blood pressure). It is filed as in vivo, Male Wistar strain rats. The settings on record: Rattus norvegicus; intravenous; decrease of about 10 mm. in diastolic blood pressure. The method, then: This procedure is a modification of the technique described by Pike et al., Prostaglandins, Nobel Symposium 2, Stockholm, June, 1966; p, 165.
Male Wistar strain rats (Royal Hart Farms) averaging approximately 250 grams in weight were fastened to rat boards in a supine position by means of canvas vests and limb ties. The femoral area was infiltrated subcutaneously with lidocaine and the iliac artery and vein exposed and cannulated. Arterial blood pressure (systolic/diastolic) was recorded using a Statham P23 Db pressure transducer-Offner dynograph system. To obtain a stable blood pressure, the animals were anesthetized before use with pentobarbital, 30 mg./kg. of body weight intravenously, and also were given hexamethonium bitartrate, 2 mg./kg. of body weight intravenously. The test compounds were prepared by ultrasonic dispersion in a saline-Tween 80 ® vehicle. A constant intravenous dose volume of 0.5 ml. was administered and test doses ranged from 0.1 to 10.0 mg./kg. of body weight. Increasing or decreasing doses were selected depending on the dose response obtained. In Table I below are set forth the minimal doses required to produce a decrease of about 10 mm. in diastolic blood pressure for typical compounds of the present invention.

Test [1] concerns dl-PGE1-induced contraction of gerbil colon. The experiment in a line: Inhibition of dl-PGE1-Induced Contraction of Gerbil Colon (prostaglandin antagonist action). It counts as cell-based, gerbils (Meriones unguiculatus). The settings on record: Meriones unguiculatus, 1 min; 200 ng./ml. dl-PGE1; read-out: ID50 vs. 200 ng. of PGE1/ml. As for the experimental part: The compounds of this invention are also useful as antagonists of prostaglandin action and accordingly they are potentially useful as anti-inflammatory agents, and as agents for the treatment of periodontal diseases and diarrhea. Testing for prostaglandin antagonist action is carried out in the following manner. Sections of ascending colon, approximately 20 mm. long, from mature male gerbils (Meriones unguiculatus) weighing 70-80 g. were mounted in De Jalon's solution (154 mM NaCl; 5.95 mM NAHCO3; […], 5.64 mM KC and .27 mM CaCl2 in 20 ml. tissue baths) (L and K Glass Co., Lynnhurst, N.J.). The medium was continually gassed with a mixture of 95% 02 -5% CO2 and maintained at 37° C. The tissues were suspended via silk suture threads between a glass hook at the base and a model FT .03C force displacement transducer (Grass Instruments, Quincy, Massachusetts). Contractions were recorded on a Poly-Viso ® polygraph (Sanborn Co., Cambridge, Massachusetts). After mounting, tissues were allowed to stabilize 15-20 minutes during which time adjustments were made to establish and maintain a 0.5 g. resting tension on the muscle. Thereafter, test cycles of 3-5 minutes were begun and consisted of a 1 minute exposure to the potential antagonist, if called for, followed by a 1 minute exposure to the prostaglandin agonist, a 15-30 sec. washout and a recovery period of 2-2.5 minutes. […] During the washout period, the tissue was rinsed with a measured amount equalling 8 volumes of medium. Muscle relaxation was virtually complete by the end of the washout period. During preliminary tests it was noted that a final concentration of 200 ng./ml. of a racemic mixture of synthetic prostaglandin-E1 (dl-PGE1) produced maximal muscle contraction. Following stabilization, muscles were exposed 2 to 3 times to this concentration of dl-PGE1 until a consistent response was recorded. Once maximal responses were established, test cycles with potential antagonists were commenced and were followed alternately with prostaglandin-only test cycle. […] The contraction of the muscle induced by 200 ng./ml. dl-PGE1 following exposure to a given concentration of the potential antagonist was always compared to the response of the tissue to that level of dl PGE1 in the immediately preceding cycle. Using a series of potential antagonist concentrations, an approximate ID50 (concentration at which 50% inhibition was observed) was established. The compounds were also tested against a sub-maximal prostaglandin challenge (20 ng./ml. dl-PGE1) in which case activity is reported in terms of a 50% inhibition of maximum response.

Test [2] has as its system Mycobacterium smegmatis ATCC 606. The experiment in a line: agar-dilution streak-plate antimicrobial assay. It counts as cell-based. The settings on record: Mycolicibacterium smegmatis, ATCC606, read-out: Minimal inhibitory conc. (6). The method, then: The novel compounds of the present invention are also useful as antimicrobial agents. […] In this assay, the compounds to be tested are made up to contain 2.5 mg. of test compound per milliliter of solution. Observing sterile techniques, two-fold serial dilution are made of each test solution. One milliliter of each of the original solutions and of each of the serial dilutions is then added to 9 ml. of warm sterile nutrient agar capable of supporting growth of the bacterial test cultures. A second set of agar dilutions is prepared identical to the first except that the nutrient agar is designed to support the growth of the fungal test cultures. […] The test bacteria and yeast-like fungi are prepared for use by growing in broth overnight. The spores of the filamentous fungi are harvested from mature agar slant cultures and are suspended in sterile physiological saline solution. A loopful of each of the resulting live suspensions is then, still employing sterile techniques, streaked upon the surfaces of each of the agar plates and the resulting streaked plates are then incubated. After an appropriate period of time, each of the streaks on each of the plates is inspected visually and the extent, if any, of bacterial or fungal growth is noted. The minimal inhibitory concentration (expressed in micrograms per milliliter) is defined as the concentration of test compound causing complete inhibition of growth of any particular organism. In a representative operation, and merely by way of illustration, the minimal inhibitory concentration of typical compounds of the present invention against a variety of test organisms as determined in the above-described assay are set forth in Tables II and III below: […]

For test [3], the system named is bronchospasms elicited by acetylcholine. The experiment in a line: Bronchodilator Activity (Konzett Assay) against acetylcholine. It counts as in vivo, guinea pigs. The settings on record: Cavia porcellus; three logarithmic cumulative intravenous doses. As for the experimental part: (§1) Bronchodilator activity was determined in guinea pigs against bronchospasms elicited by intravenous injections of 5-hydroxytryptamine, histamine or acetylcholine by the Konzett procedure. [See J. Lulling, P. Lievens, F. El Sayed and J. Prignot, Arzeneimittel-Forschung, 18, 995 (1968)]. In Table IIIC which follows bronchodilator activity for representative compounds of this invention against one or more of the three spasmogenic agents is expressed as an ED50 determined from the results obtained with three logarithmic cumulative intravenous doses.

For test [4], the system named is bronchospasms elicited by histamine. The experiment in a line: Bronchodilator Activity (Konzett Assay) against histamine. The settings on record: Cavia porcellus; three logarithmic cumulative intravenous doses. It counts as in vivo, guinea pigs. The method, then: as §1
The test system of test [5] is bronchospasms elicited by 5-hydroxytryptamine. The experiment in a line: Bronchodilator Activity (Konzett Assay) against 5-hydroxytryptamine. The settings on record: Cavia porcellus; three logarithmic cumulative intravenous doses. It counts as in vivo, guinea pigs. As for the experimental part: as §1
The next test has as its system gastric acid secretion. The experiment in a line: Inhibition of Gastric Acid Secretion (Pylorous-Ligated Rat), Shay rat procedure. It counts as in vivo, rats (male, CFE strain). The settings on record: 100 mg./kg. intraduodenal, read-out: % Inhibition of Control Gastric Acid Secretion. The source says:
The novel compounds of the present invention are also effective inhibitors of gastric acid secretion and of ulcer development in experimental animals, and thus are potentially valuable as agents for the control of gastric acid secretion and of gastric erosion and as anti-ulcer agents. Gastric acid secretion inhibitory action is usually measured by the Shay rat procedure ^(1,2) with some modifications as follows. 6 1. Shay et al., Gastroenterology, 5, 43 (1945). 6 2. Shay et al., Gastroenterology, 26, 906 (1954).
The rats (male, CFE strain) were starved for 48 hours (water was given ad libitum) to permit evacuation of stomach contents. On the morning of the experiment, under ether anesthesia, the abdominal region was shaved and a midline incision (1-1 1/2 inch) was made with a scalpel. With the help of a closed curved hemostat the duodenum was picked up. Upon getting the duodenum into view fingers were used to pull the stomach through the opening, the stomach was then gently manipulated with fingers to rid stomach of air and residual matter which were pushed through the pylorus. Two 5-inch sutures were drawn under the pyloric-duodenal puncture. A ligature, at the juncture, was formed with one of the threads. The second ligature was also formed but not tightened.
The test compound or the vehicle, usually 1 ml./100 g. body weight, were injected into the duodenum as close as possible to the first ligature. After injection the second ligature was tightened below the injection site to minimize leakage. The stomach was placed back through the opening into the abdominal cavity, the area of incision was washed with saline and the incision was closed with autoclips. (Ocasionally instead of an intraduodenal injection, animals were dosed by the oral or subcutaneous route. In the latter case, dosing was done thirty to sixty minutes before the operation).
The abdominal cavity was exposed by cutting with scissors and the esophagus close to the stomach was clamped off with a hemostat, the stomach was removed by cutting above the hemostat (the esophagus was cut) and between the two sutures. Extraneous tissue was removed, the stomach washed with saline and blotted on gauze. A slit was carefully made in the stomach which was held over a funnel and the contents were collected in a centrifuge tube. The stomach was further cut along the outside edge and turned inside out. Two ml. of water were used to wash the stomach contents into the respective centrifuge tube. The combined stomach contents and wash were then centrifuged out for 10 minutes in the International Size 2 Centrifuge (setting at 30). The supernatant was collected, volume measured and recorded, 2 drops of phenolphthalein indicator (1% in 95% ethanol) were added and the solution was titrated with 0.02N NaOH (or with 0.04N NaOH when large volumes of stomach contents were encountered) to pH 8.4 (because of usual coloring of the stomach contents, phenolphthalein was only used to permit visual indication that the end point was near) and the amount of acid present was calculated.
Compounds inducing inhibition of gastric acid secretion of 20% or more were considered active. In a representative operation, and merely by way of illustration, the results obtained with this assay with typical compounds of the present invention are given in Table IIIA.

In brackets after ≈: the same amount, converted by molar mass. A value given as a limit tells only on which side of the number the result lay.

What is called minimal effective dose is the smallest amount tested that counted as effective. Molecule `CCCCCC/C=C/[C@@H]1CCC(=O)[C@H]1CCCCCCC(=O)Oc1cccnc1` (relative stereo) [3-pyridyl 9-oxo-13-trans-prostenoate, 3'-pyridyl 9-oxo-13-trans-prostenoate] yielded a minimal effective dose in the test with diastolic blood pressure of 0.4 to 4 mg/kg. The IC50 in test [1] turned out to be 12 µg/mL (≈ 30 µM). Besides, the MIC in test [2] worked out at 50 µg/mL (≈ 125 µM).

As usually defined, the ED50 is the dose that gives a 50% effect, or the effect in half of the subjects. Low readings indicate greater potency, high ones weaker potency. Take `CCCCCC/C=C/[C@@H]1CCC(=NNc2ccc(C(=O)O)cc2)[C@H]1CCCCCCC(=O)O` (relative stereo) [9-Oxo-13-trans-prostenoic acid p-carboxyphenylhydrazone]: the ED50 in test [3] amounted to 5.55 mg/kg; in test [4], 0.931 mg/kg; in test [5], 3.2 mg/kg.

For the molecule `C=C1CC[C@@H](/C=C/CCCCCC)[C@@H]1CCCCCCC(=O)O` (relative stereo) [9-methylene-13-trans-prostenoic acid, 9-Methylene-13-trans-prostenoic acid], the ED50 is > 10 mg/kg in test [3], 1.45 mg/kg in test [4] and 14.1 mg/kg in test [5].

Take `CCCCCC/C=C/[C@@H]1CCC(=O)[C@H]1CCCCSCC(=O)O` (relative stereo) [9-oxo-3-thia-13-trans-prostenoic acid]: the ED50 is 2.43 mg/kg in test [3], 1.24 mg/kg in test [4] and 1.56 mg/kg in test [5]. Besides, the IC50 in test [1] was found to be 20 µg/mL (≈ 58.7 µM).

For `CCS(=O)(=O)CCC/C=C/[C@H]1CCC(=O)[C@@H]1CCCCCCC(=O)O` (relative stereo) [9-oxo-18-dioxythia-13-trans-prostenoic acid], the figures for the ED50 in test [3], in test [4] and in test [5] were > 10 mg/kg, 9.87 mg/kg and > 10 mg/kg, respectively.

For the molecule `CCCCCC/C=C/[C@@H]1CC[C@@H](O)[C@H]1CCCCCCC(=O)O` (relative stereo) [9α-hydroxy-13-trans-prostenoic acid], the ED50 in test [3] was found to be 2.53 mg/kg; in test [4], 0.268 mg/kg; in test [5], 0.559 mg/kg.

For the molecule `CCOC(=O)CCCCCC[C@H]1C(=O)CC[C@@H]1/C=C/CCCSCC` (relative stereo) [ethyl 9-oxo-18-thia-13-trans-prostenoate], in the test with diastolic blood pressure, the minimal effective dose turned out to be 2 mg/kg. For the same molecule, the MIC in test [2] was 250 µg/mL (≈ 678 µM).

The molecule `CCCCC/C=C/[C@H]1CCC(=O)[C@@H]1CCCCCCC(=O)OCC` (relative stereo) [ethyl 9-oxo-20-nor-13-trans-prostenoate] returned a minimal effective dose in the test with diastolic blood pressure of 0.6 mg/kg. Further, the MIC in test [2] was 62 µg/mL (≈ 184 µM).

`CCOC(=O)CCCCCC[C@H]1C(=O)CC[C@@H]1/C=C/CCC(C)C` (relative stereo) [ethyl 17-methyl-9-oxo-19,10-dinor-13-trans-rpostenoate]: the minimal effective dose with diastolic blood pressure is 10 mg/kg. The MIC in test [2] was 62 µg/mL (≈ 184 µM). Moreover, in the test on gastric acid secretion, the inhibition in vivo at 100 mg/kg amounted to 21%.

In the test with diastolic blood pressure, `CCOC(=O)CCCCCC[C@H]1C(=O)CC[C@@H]1/C=C/CCCC(C(=O)OCC)C(=O)OCC` (relative stereo) [ethyl 20,20-dicarbethoxy-9-oxo-18,19-dinor-13-trans-prostenoate] displayed a minimal effective dose of 8 mg/kg. For the same molecule, the MIC in test [2] amounted to 250 µg/mL (≈ 536 µM). Also, the inhibition in vivo at 100 mg/kg in the test with gastric acid secretion was 38%.

For the molecule `CCOC(=O)CCCCCC[C@H]1C(=O)CC[C@@H]1/C=C/CCCCCCI` (relative stereo) [ethyl 20-iodo-9-oxo-13-trans-prostenoate], in test [2], the MIC was 62 µg/mL (≈ 130 µM). In addition, the inhibition in vivo at 100 mg/kg with gastric acid secretion was 42%.

Regarding `CCCCCCC=CC1CCC(O)(c2ccccc2)C1CCCCCCC(=O)O` (stereo not drawn) [9-hydroxy-9-phenyl-13-trans-prostenoic acid], the ED50 was > 10 mg/kg in test [3], 5.27 mg/kg in test [4] and 2.44 mg/kg in test [5].

Consider `CCCCCC/C=C/[C@H]1CC(C)C(=O)[C@@H]1CCCCCCC(=O)O` (stereo partly drawn) [9-oxo-10-methyl-13-trans-prostenoic acid], for which the ED50 in test [3] came out at 73.2 mg/kg; in test [4], 0.303 mg/kg; in test [5] it was 1.84 mg/kg.

With `CC(C)C/C=C/[C@H]1CCC(O)[C@@H]1CCCCCCC(=O)O` (stereo partly drawn) [9α/β-hydroxy-16-methyl-18,19,20-trinor-13-trans-prostenoic acid], the values for the ED50 in test [3], in test [4] and in test [5] were > 10 mg/kg, 3.47 mg/kg and > 10 mg/kg, respectively.
